Test results published in the NIST ThermoML archive (doi:10.1016/j.jct.2006.09.012).
Several values for one entry are separate records, joined by “and”; a condition that tells them apart may be missing. Equal entries are not always repeated.

Settings: Gas, Buoyancy - hydrostatic balance with magnetic suspension - two sinkers

[He] [helium]
Settings | mass density
273.16 K, 31577 kPa | 47.957 kg/m3 and 47.9575 kg/m3
273.16 K, 31578 kPa | 47.9581 kg/m3 and 47.9577 kg/m3
273.16 K, 31775 kPa | 48.2167 kg/m3
273.16 K, 31776 kPa | 48.2177 kg/m3
273.16 K, 31777 kPa | 48.2188 kg/m3
273.16 K, 31778 kPa | 48.22 kg/m3
273.16 K, 31779 kPa | 48.2215 kg/m3
273.16 K, 31780 kPa | 48.2235 kg/m3
273.16 K, 31865 kPa | 48.3344 kg/m3 and 48.3352 kg/m3
273.16 K, 31866 kPa | 48.3358 kg/m3
273.16 K, 31867 kPa | 48.3368 kg/m3 and 48.3375 kg/m3
273.16 K, 32210 kPa | 48.7873 kg/m3
273.16 K, 32211 kPa | 48.788 kg/m3
273.16 K, 32212 kPa | 48.7903 kg/m3 and 48.7886 kg/m3
273.16 K, 32213 kPa | 48.7913 kg/m3
273.16 K, 37198 kPa | 55.185 kg/m3
273.16 K, 37199 kPa | 55.1865 kg/m3
273.16 K, 37200 kPa | 55.1874 kg/m3
273.16 K, 37201 kPa | 55.1885 kg/m3 and 55.1895 kg/m3
273.16 K, 37514 kPa | 55.5816 kg/m3
273.16 K, 37515 kPa | 55.5829 kg/m3
273.16 K, 37517 kPa | 55.5843 kg/m3
273.16 K, 37518 kPa | 55.5858 kg/m3
273.16 K, 37520 kPa | 55.5878 kg/m3
273.16 K, 37531 kPa | 55.6035 kg/m3
273.16 K, 37536 kPa | 55.6095 kg/m3
273.16 K, 37537 kPa | 55.6109 kg/m3
273.16 K, 37539 kPa | 55.6125 kg/m3
273.16 K, 37540 kPa | 55.6136 kg/m3
273.16 K, 38114 kPa | 56.3321 kg/m3 and 56.3327 kg/m3
273.16 K, 38115 kPa | 56.3338 kg/m3
273.16 K, 38116 kPa | 56.335 kg/m3 and 56.3346 kg/m3
293.15 K, 980.1 kPa | 1.6025 kg/m3
293.15 K, 980.2 kPa | 1.6025 kg/m3 and 1.6026 kg/m3
293.15 K, 1731.6 kPa | 2.8204 kg/m3 and 2.8205 kg/m3 and 2.8207 kg/m3
293.15 K, 3908.9 kPa | 6.3007 kg/m3 [middle of 5 runs]
293.15 K, 4006.9 kPa | 6.4542 kg/m3
293.15 K, 4007 kPa | 6.4541 kg/m3 and 6.4543 kg/m3 and 6.4542 kg/m3
293.15 K, 7058 kPa | 11.2086 kg/m3
293.15 K, 7058.1 kPa | 11.2089 kg/m3 and 11.2088 kg/m3
293.15 K, 7058.2 kPa | 11.2089 kg/m3
293.15 K, 7881.3 kPa | 12.4696 kg/m3
293.15 K, 7881.6 kPa | 12.4701 kg/m3
293.15 K, 7882.1 kPa | 12.4707 kg/m3
293.15 K, 7882.6 kPa | 12.4715 kg/m3
293.15 K, 7883 kPa | 12.4722 kg/m3
293.15 K, 10034 kPa | 15.7199 kg/m3
293.15 K, 10035 kPa | 15.7202 kg/m3 and 15.7205 kg/m3
293.15 K, 11762 kPa | 18.2837 kg/m3 [middle of 5 runs]
293.15 K, 14018 kPa | 21.5714 kg/m3 [middle of 8 runs]
293.15 K, 16004 kPa | 24.4152 kg/m3
293.15 K, 16005 kPa | 24.4156 kg/m3 [middle of 4 runs]
293.15 K, 18018 kPa | 27.2473 kg/m3 and 27.2468 kg/m3 and 27.2464 kg/m3
293.15 K, 18019 kPa | 27.2479 kg/m3 [middle of 5 runs]
293.15 K, 19905 kPa | 29.8586 kg/m3 and 29.8588 kg/m3
293.15 K, 19906 kPa | 29.8595 kg/m3 and 29.8599 kg/m3 and 29.8592 kg/m3
293.15 K, 24474 kPa | 36.0124 kg/m3 [middle of 4 runs]
293.15 K, 24475 kPa | 36.0141 kg/m3 and 36.0137 kg/m3
293.15 K, 24476 kPa | 36.0152 kg/m3
293.15 K, 25777 kPa | 37.7285 kg/m3
293.15 K, 25778 kPa | 37.7301 kg/m3 and 37.7298 kg/m3 and 37.7293 kg/m3
293.15 K, 25779 kPa | 37.7309 kg/m3
293.15 K, 29507 kPa | 42.5361 kg/m3
293.15 K, 29508 kPa | 42.5375 kg/m3 and 42.5373 kg/m3
293.15 K, 29509 kPa | 42.5383 kg/m3
293.15 K, 29510 kPa | 42.5393 kg/m3 and 42.5394 kg/m3
293.15 K, 29511 kPa | 42.5405 kg/m3
293.15 K, 31846 kPa | 45.4829 kg/m3
293.15 K, 31847 kPa | 45.4837 kg/m3
293.15 K, 31848 kPa | 45.4862 kg/m3 and 45.4845 kg/m3
293.15 K, 31850 kPa | 45.4879 kg/m3
293.15 K, 38003 kPa | 52.9909 kg/m3
293.15 K, 38004 kPa | 52.9921 kg/m3
293.15 K, 38005 kPa | 52.993 kg/m3
293.15 K, 38006 kPa | 52.9944 kg/m3
293.15 K, 38007 kPa | 52.9958 kg/m3
293.16 K, 10034 kPa | 15.7195 kg/m3
323.15 K, 1780.1 kPa | 2.6324 kg/m3 and 2.6323 kg/m3 and 2.6322 kg/m3
323.15 K, 1780.2 kPa | 2.6323 kg/m3
323.15 K, 3959.1 kPa | 5.7989 kg/m3 and 5.7987 kg/m3
323.15 K, 7974.3 kPa | 11.4834 kg/m3 and 11.4836 kg/m3
323.15 K, 7974.4 kPa | 11.4837 kg/m3 and 11.4836 kg/m3
323.15 K, 11648 kPa | 16.5228 kg/m3 [middle of 5 runs]
323.15 K, 15081 kPa | 21.0997 kg/m3
323.15 K, 15082 kPa | 21.1007 kg/m3 and 21.1001 kg/m3 and 21.1 kg/m3
323.15 K, 19305 kPa | 26.565 kg/m3 and 26.5643 kg/m3 and 26.5647 kg/m3
323.15 K, 19306 kPa | 26.5662 kg/m3 and 26.5653 kg/m3
323.15 K, 25679 kPa | 34.4876 kg/m3 and 34.4883 kg/m3
323.15 K, 25680 kPa | 34.4886 kg/m3 and 34.489 kg/m3 and 34.4895 kg/m3
323.15 K, 31795 kPa | 41.7513 kg/m3 and 41.752 kg/m3
323.15 K, 31796 kPa | 41.7528 kg/m3
323.15 K, 31797 kPa | 41.7536 kg/m3 and 41.7543 kg/m3
323.15 K, 37888 kPa | 48.6852 kg/m3
323.15 K, 37889 kPa | 48.6863 kg/m3
323.15 K, 37890 kPa | 48.6876 kg/m3
323.15 K, 37891 kPa | 48.6888 kg/m3
323.15 K, 37892 kPa | 48.6904 kg/m3
